Data from ChEMBL document CHEMBL2074311, “ATP-dependent para-aminohippurate transport by apical multidrug resistance protein MRP2” (Kidney Int, 2000).

Key:
[1] = target: T1, ATP-binding cassette sub-family C member 2 (Homo sapiens, UniProt Q92887); assay: TP_TRANSPORTER: uptake in membrane vesicles from MRP2-expressing HEK cells; assay type: functional, cell membranes, Membrane vesicle; conditions: hek293
[2] = target: T1, ATP-binding cassette sub-family C member 2; assay: TP_TRANSPORTER: inhibition of PAH uptake (PAH: 0.1uM) in membrane vesicles from MRP2-expressing HEK cells; assay type: functional, cell membranes, HEK293, Membrane vesicle

T1 sequence (Q92887 whole entry): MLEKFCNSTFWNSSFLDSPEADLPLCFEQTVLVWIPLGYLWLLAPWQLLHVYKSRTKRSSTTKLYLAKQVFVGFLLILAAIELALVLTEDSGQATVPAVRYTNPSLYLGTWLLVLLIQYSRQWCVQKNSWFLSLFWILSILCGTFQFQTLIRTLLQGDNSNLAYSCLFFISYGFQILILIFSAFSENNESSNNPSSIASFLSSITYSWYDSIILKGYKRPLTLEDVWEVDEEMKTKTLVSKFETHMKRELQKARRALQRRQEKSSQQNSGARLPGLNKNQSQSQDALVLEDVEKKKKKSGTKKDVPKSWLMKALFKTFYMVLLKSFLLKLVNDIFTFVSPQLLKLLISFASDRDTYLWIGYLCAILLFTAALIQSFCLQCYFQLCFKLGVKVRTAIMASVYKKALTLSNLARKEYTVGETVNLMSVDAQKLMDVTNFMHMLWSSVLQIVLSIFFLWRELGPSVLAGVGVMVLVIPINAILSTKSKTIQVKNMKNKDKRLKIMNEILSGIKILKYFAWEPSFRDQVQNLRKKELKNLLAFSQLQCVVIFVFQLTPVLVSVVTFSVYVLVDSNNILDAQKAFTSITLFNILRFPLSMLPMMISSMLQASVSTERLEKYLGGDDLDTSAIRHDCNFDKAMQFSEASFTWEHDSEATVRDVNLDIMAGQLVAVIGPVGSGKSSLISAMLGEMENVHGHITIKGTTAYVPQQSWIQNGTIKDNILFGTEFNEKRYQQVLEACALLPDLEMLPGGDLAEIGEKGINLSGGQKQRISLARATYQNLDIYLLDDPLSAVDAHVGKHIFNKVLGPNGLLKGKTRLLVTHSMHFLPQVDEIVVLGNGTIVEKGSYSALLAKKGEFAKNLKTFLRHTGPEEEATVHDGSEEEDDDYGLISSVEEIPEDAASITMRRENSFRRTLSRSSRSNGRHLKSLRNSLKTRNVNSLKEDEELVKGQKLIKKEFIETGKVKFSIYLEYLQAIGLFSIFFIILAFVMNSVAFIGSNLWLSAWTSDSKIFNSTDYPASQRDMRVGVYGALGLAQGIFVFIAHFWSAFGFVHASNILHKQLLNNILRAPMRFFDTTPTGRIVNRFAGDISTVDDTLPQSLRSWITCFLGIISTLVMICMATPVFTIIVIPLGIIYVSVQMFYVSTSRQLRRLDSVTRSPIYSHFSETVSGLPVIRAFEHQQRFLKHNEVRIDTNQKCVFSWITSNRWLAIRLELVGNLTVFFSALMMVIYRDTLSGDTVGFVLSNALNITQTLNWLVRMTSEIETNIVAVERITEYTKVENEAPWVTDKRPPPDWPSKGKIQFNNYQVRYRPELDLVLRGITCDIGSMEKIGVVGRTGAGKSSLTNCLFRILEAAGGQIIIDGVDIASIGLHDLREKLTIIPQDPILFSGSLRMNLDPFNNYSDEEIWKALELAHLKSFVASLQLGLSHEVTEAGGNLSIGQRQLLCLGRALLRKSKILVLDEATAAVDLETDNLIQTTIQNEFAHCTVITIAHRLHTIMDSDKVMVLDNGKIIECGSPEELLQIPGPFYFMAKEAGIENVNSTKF

Row | IC50 [2] | SMILES | Activity [1]
1 | 3.3 µM | CCCCC/C=C\C\C=C/C=C/C=C/[C@@H](SC[C@@H](NC(=O)CC[C@H](N)C(=O)O)C(=O)NCC(=O)O)[C@@H](O)CCCC(=O)O [LEUKOTRIEN C4] | 
2 | 4 µM | CN(C)C(=O)CCSC(SCCC(=O)O)c1cccc(/C=C/c2ccc3ccc(Cl)cc3n2)c1 (centres undefined) [MK-571] | 

Row | SMILES | IC50 [2] | Activity [1]
3 | C[C@@H]1Cc2c(Cl)cc(C(=O)N[C@@H](Cc3ccccc3)C(=O)O)c(O)c2C(=O)O1 [3R14S-OCHRATOXIN A] | 58 µM | substrate [+]
